# Tests used:
# Aurora-A = target: T1, Aurora-A (Homo sapiens, UniProt O14965); assay: Flashplate Aurora A enzyme inhibition assay; type: biochemical; details: Flashplate assay; IC50 range; read-out: Aurora-A inhibition
# T1 sequence (O14965 1-403): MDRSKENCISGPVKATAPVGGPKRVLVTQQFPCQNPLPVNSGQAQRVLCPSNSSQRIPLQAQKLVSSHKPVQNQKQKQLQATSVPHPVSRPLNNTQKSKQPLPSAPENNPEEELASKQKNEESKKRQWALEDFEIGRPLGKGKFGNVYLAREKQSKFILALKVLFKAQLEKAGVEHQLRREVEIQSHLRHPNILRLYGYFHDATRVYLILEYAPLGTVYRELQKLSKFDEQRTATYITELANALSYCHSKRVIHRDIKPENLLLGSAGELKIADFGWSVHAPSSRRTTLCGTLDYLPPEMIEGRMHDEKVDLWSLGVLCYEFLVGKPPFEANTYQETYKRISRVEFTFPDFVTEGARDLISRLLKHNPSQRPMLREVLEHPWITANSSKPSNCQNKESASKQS
# Protocol: Flashplate® Assay for Identification and Evaluation of Aurora-A Inhibitors
# On this assay 384-well Basic Flashplate® (SMP400E, PerkinElmer) as solid assay platform was used. The plates were coated overnight at 4° C. with […] at 100 μg/ml in PBS buffer and used after being washed twice with PBS. 5 μl of compound in 2% DMSO was added to each well followed by 15 μl master mix of kinase buffer (50 mM Tris pH 7.5, 10 mM NaCl, 2.5 mM MgCl2, 1 mM […], 20 μM ATP, and 0.025 μCi/μl ^33P-ATP). Finally, 250 ng per well of Aurora-A enzyme was added. The plate was shaken for approximately 2 min on a flat-bed plate shaker (Wellmix, Denley, UK) and incubated for 2 hours at room temperature. The reaction was stopped by washing the plate twice on a 16-pin wash (ELX50 BioTek Instruments Ltd., Northstar, Bedford, UK) with 10 mM sodium pyrophosphate. The plate was then read on a TopCount-NX™ (PerkinElmer Life Sciences UK Ltd., Hounslow, UK).
# HCT116 cells = assay: Cell viability assay (MTT) in HCT116 cell line; type: cell-based; details: Homo sapiens, HCT-116, 72 hrs, IC50 range, read-out: HCT116 cell growth inhibition
# Protocol: Cell Viability Assay: Determination of IC50 of Aurora Inhibitors in HCT116 Cell Line Using MTT Assay. The effects of compounds of the Examples on cellular proliferation were determined using the MTT assay according to manufacturer's instructions (Sigma). Briefly, the human colon tumour cells HCT116, were seeded in triplicate into 96-well plates at 2500 cells/well 24 hours before treatment with a range of concentrations of Aurora inhibitors (0-50 μM). After 72 hrs, 15 μl/well of 0.5% 3-(4,5-dimethylthiazol-2-yl)-2,5-diphenyltetrazolium bromide (MTT) was added to the cells for 4 hrs at 37° C., the dye-stained viable cells were extracted by adding 150 μl/well of dimethyl sulphoxide (DMSO). […] The IC50 was calculated using the Prism software.
IC50 (Aurora-A) [nM],IC50 (HCT116 cells) [nM],SMILES
< 500,2000 to 50000,"CN(C)c1ccc(-c2nc3c(N4CCN(C(=O)Nc5nccs5)CC4)c(Br)cnc3[nH]2)cc1 [Example 42, 4-(6-Bromo-2-(4-(dimethylamino)phenyl)-3H-imidazo[4,5-b]pyridin-7-yl)-N-(thiazol-2-yl)piperazine-1-carboxamide]"
< 500,500 to 2000,"O=C(CN1CCN(c2c(Br)cnc3[nH]c(-c4cccnc4)nc23)CC1)Nc1nccs1 [Example 44, 2-(4-(6-Bromo-2-(pyridin-3-yl)-3H-imidazo[4,5-b]pyridin-7-yl)piperazin-1-yl)-N-(thiazol-2-yl)acetamide]"
500 to 2000,2000 to 50000,"NC(=O)C1CC1c1nc2c(N3CCN(CC(=O)Nc4nccs4)CC3)c(Br)cnc2[nH]1 (centres unmarked) [Example 46, 2-(6-Bromo-7-(4-(2-oxo-2-(thiazol-2-ylamino)ethyl)piperazin-1-yl)-3H-imidazo[4,5-b]pyridin-2-yl)cyclopropanecarboxamide]"
< 500,< 500,"COc1ccc(-c2nc3c(N4CCN(C(C)c5ccncc5)CC4)c(Br)cnc3[nH]2)cc1 (centres unmarked) [Example 54, 6-Bromo-2-(4-methoxyphenyl)-7-(4-(1-(pyridin-4-yl)ethyl)piperazin-1-yl)-3H-imidazo[4,5-b]pyridine]"
< 500,2000 to 50000,"Cn1cc(-c2nc3c(N4CCN(Cc5cccnc5)CC4)c(Br)cnc3[nH]2)cn1 [Example 56, 6-Bromo-2-(1-methyl-1H-pyrazol-4-yl)-7-(4-(pyridin-3-ylmethyl)piperazin-1-yl)-3H-imidazo[4,5-b]pyridine]"
< 500,2000 to 50000,"Cc1nn(C)c(C)c1-c1nc2c(N3CCN(Cc4cccnc4)CC3)c(Br)cnc2[nH]1 [Example 57, 6-Bromo-7-(4-(pyridin-3-ylmethyl)piperazin-1-yl)-2-(1,3,5-trimethyl-1H-pyrazol-4-yl)-3H-imidazo[4,5-b]pyridine]"
< 500,500 to 2000,"CN1CCN(Cc2cccc(-c3nc4c(N5CCN(Cc6cccnc6)CC5)c(Br)cnc4[nH]3)c2)CC1 [Example 58, 6-Bromo-2-(3-((4-methylpiperazin-1-yl)methyl)phenyl)-7-(4-(pyridin-3-ylmethyl)piperazin-1-yl)-3H-imidazo[4,5-b]pyridine]"
< 500,2000 to 50000,"CC(C)(C)OC(=O)NCc1ccc(-c2nc3c(N4CCN(Cc5cccnc5)CC4)c(Br)cnc3[nH]2)cc1 [Example 59, tert-Butyl 4-(6-bromo-7-(4-(pyridin-3-ylmethyl)piperazin-1-yl)-3H-imidazo[4,5-b]pyridin-2-yl)benzylcarbamate]"
< 500,500 to 2000,"NCc1ccc(-c2nc3c(N4CCN(Cc5cccnc5)CC4)c(Br)cnc3[nH]2)cc1 [Example 60, (4-(6-Bromo-7-(4-(pyridin-3-ylmethyl)piperazin-1-yl)-3H-imidazo[4,5-b]pyridin-2-yl)phenyl)methanamine]"
< 500,500 to 2000,"CN(C)Cc1ccc(-c2nc3c(N4CCN(Cc5cccnc5)CC4)c(Br)cnc3[nH]2)cc1 [Example 61, 1-(4-(6-Bromo-7-(4-(pyridin-3-ylmethyl)piperazin-1-yl)-3H-imidazo[4,5-b]pyridin-2-yl)phenyl)-N,N-dimethylmethanamine]"
< 500,500 to 2000,"CN(C)c1ccc(-c2nc3c(N4CCN(CC(=O)Nc5nccs5)CC4)c(C#N)cnc3[nH]2)cc1 [Example 62, 2-(4-(6-Cyano-2-(4-(dimethylamino)phenyl)-3H-imidazo[4,5-b]pyridin-7-yl)piperazin-1-yl)-N-(thiazol-2-yl)acetamide]"
< 500,500 to 2000,"COc1ccc(-c2nc3c(N4CCN(CC(=O)Nc5cc(C)no5)CC4)c(Cl)cnc3[nH]2)cc1 [Example 64, 2-(4-(6-Chloro-2-(4-methoxyphenyl)-3H-imidazo[4,5-b]pyridin-7-yl)piperazin-1-yl)-N-(3-methylisoxazol-5-yl)acetamide]"
< 500,< 500,"Brc1cnc2[nH]c(-c3cccc(CN4CCOCC4)c3)nc2c1N1CCN(Cc2cccnc2)CC1 [Example 66, 6-Bromo-2-(3-morpholin-4-ylmethyl-phenyl)-7-(4-pyridin-3-ylmethyl-piperazin-1-yl)-3H-imidazo[4,5-b]pyridine]"
< 500,< 500,"COc1ccc(-c2nc3c(N4CCN(Cc5ccncc5)CC4)c(Br)cnc3[nH]2)cc1 [Example 67, 6-Bromo-2-(4-methoxy-phenyl)-7-(4-pyridin-4-ylmethyl-piperazin-1-yl)-3H-imidazo[4,5-b]pyridine]"
< 500,500 to 2000,"Clc1ccc(CN2CCN(c3c(Br)cnc4[nH]c(-c5ccc(CN6CCOCC6)cc5)nc34)CC2)cc1 [Example 69, 6-Bromo-7-[4-(4-chloro-benzyl)-piperazin-1-yl]-2-(4-morpholin-4-ylmethyl-phenyl)-3H-imidazo[4,5-b]pyridine]"

SMILES,IC50 (Aurora-A) [nM],IC50 (HCT116 cells) [nM]
"COc1ccc(-c2nc3c(N4CCN(Cc5ccncc5)CC4)c(Cl)cnc3[nH]2)cc1 [Example 35, 6-Chloro-2-(4-methoxyphenyl)-7-(4-(pyridin-4-ylmethyl)piperazin-1-yl)-3H-imidazo[4,5-b]pyridine]",< 500,500 to 2000
"COc1ccc(-c2nc3c(N4CCN(CC(C)C)CC4)c(Cl)cnc3[nH]2)cc1 [Example 36, 6-Chloro-7-(4-isobutylpiperazin-1-yl)-2-(4-methoxyphenyl)-3H-imidazo[4,5-b]pyridine]",< 500,< 500
"COc1ccc(-c2nc3c(N4CCN(Cc5ccc(Cl)cc5)CC4)c(Cl)cnc3[nH]2)cc1 [Example 37, 6-Chloro-7-(4-(4-chlorobenzyl)piperazin-1-yl)-2-(4-methoxyphenyl)-3H-imidazo[4,5-b]pyridine]",< 500,2000 to 50000
"CN(C)c1ccc(-c2nc3c(N4CCN(C(=O)COc5ccccc5)CC4)c(Br)cnc3[nH]2)cc1 [Example 38, 1-(4-(6-Bromo-2-(4-(dimethylamino)phenyl)-3H-imidazo[4,5-b]pyridin-7-yl)piperazin-1-yl)-2-phenoxyethanone]",< 500,500 to 2000
"CN(C)c1ccc(-c2nc3c(N4CCN(S(C)(=O)=O)CC4)c(Br)cnc3[nH]2)cc1 [Example 49, 4-(6-Bromo-7-(4-(methylsulfonyl)piperazin-1-yl)-3H-imidazo[4,5-b]pyridin-2-yl)-N,N-dimethylaniline]",< 500,500 to 2000
"CC(c1ccccn1)N1CCN(c2c(Br)cnc3[nH]c(-c4ccc(N(C)C)cc4)nc23)CC1 (centres unmarked) [Example 50, 4-(6-Bromo-7-(4-(1-(pyridin-2-yl)ethyl)piperazin-1-yl)-3H-imidazo[4,5-b]pyridin-2-yl)-N,N-dimethylaniline]",< 500,500 to 2000
"CC(c1cccnc1)N1CCN(c2c(Br)cnc3[nH]c(-c4ccc(N(C)C)cc4)nc23)CC1 (centres unmarked) [Example 52, 4-(6-Bromo-7-(4-(1-(pyridin-3-yl)ethyl)piperazin-1-yl)-3H-imidazo[4,5-b]pyridin-2-yl)-N,N-dimethylaniline]",< 500,500 to 2000
"CC(c1ccncc1)N1CCN(c2c(Br)cnc3[nH]c(-c4ccc(N(C)C)cc4)nc23)CC1 (centres unmarked) [Example 53, 4-(6-Bromo-7-(4-(1-(pyridin-4-yl)ethyl)piperazin-1-yl)-3H-imidazo[4,5-b]pyridin-2-yl)-N,N-dimethylaniline]",< 500,500 to 2000
"Cc1cc(NC(=O)CN2CCN(c3c(Cl)cnc4[nH]c(-c5ccc(N(C)C)cc5)nc34)CC2)on1 [Example 63, 2-(4-(6-Chloro-2-(4-(dimethylamino)phenyl)-3H-imidazo[4,5-b]pyridin-7-yl)piperazin-1-yl)-N-(3-methylisoxazol-5-yl)acetamide]",< 500,500 to 2000
"CC(c1ccccc1)N1CCN(c2c(Br)cnc3[nH]c(-c4ccc(CN5CCOCC5)cc4)nc23)CC1 (centres unmarked) [Example 70, 6-Bromo-2-(4-morpholin-4-ylmethyl-phenyl)-7-[4-(1-phenyl-ethyl)-piperazin-1-yl]-3H-imidazo[4,5-b]pyridine]",< 500,500 to 2000

# — patent US8088761B2, “Enzyme inhibitors” (Cancer Research Technology Limited, priority 2005, dated 2012)
